# Experimental data published in patent EP0514268A1, “Substituted amino acid azetidinyl pyridone derivatives, their preparation and use as medicines” (LABORATORIOS DEL DR. ESTEVE, S.A., priority 1991, dated 1992).
# Legend:
# [1] = tested on: Strep. faecalis ATCC 10541; assay: Antimicrobial activity, agar dilution; format: cell-based, Streptococcus faecalis; settings: Enterococcus faecalis, ATCC10541, 20 h, Agar Dextrose dilutions, 37°C, 20 heures, read-out: Activité pharmacologique antimicrobienne (concentrations)
# Text: (§1) L'activité pharmacologique antimicrobienne de ces composés a été étudiée selon les références exposées ci-dessous.
# (§2) Activité pharmacologique antimicrobienne : G.L. Daquet et Y.A. Chabbect, techniques en bactériologie, Vol. 3, Flammarion Médecine-Sciences, Paris 1972, et W.B. Hugo et A.D. Rusell, Pharmaceutical Microbiology, Blackwell Scientific Publications, London, 1977.
# (§3) Milieu de culture et solvant : Agar d'antibiotiques n° 1 (Oxoid CM 327) Bouillon de triptone-soja (Oxoid CM 129) Solution Physiologique Ringer 1/4 (Oxoid BR 52) Agar Dextrose (BBL 11165)
# (§4) Microorganismes : "Bacillus subtilis" ATCC 6633 "Citrobacter freundii" ATCC 112606 "Enterobacter aerogenes" ATCC 15038 "Enterobacter cloacae" ATCC 23355 "Bacillus cereus" ATCC 1178 "Escherichia coli" ATCC 10799 "Escherichia coli" ATCC 23559 "Klebsiella pneumoniae" ATCC 10031 "Proteus vulgaris" ATCC 8427 "Morg. morganii" ATCC 8019 "Pseudomonas aeruginosa" ATCC 9721 "Pseudomonas aeruginosa" ATCC 10145 "Salmonella typhimurium" ATCC 14028 "Salmonella typhimurium" ATCC 6539 "Serratia marcescens" ATCC 13880 "Shigella flexnerii" ATCC 12022 "Staphylococcusepidermis" ATCC 155-1 "Staphylococcus aureus" ATCC 25178 "Streptococcus faecalis" ATCC 10541.
# (§5) Chacun des microorganismes est ensemencé par strie dans des tubes d'Agar d'antibiotiques n° 1, et mis en incubation pendant 20 heures à 37°C. Ensuite, on prend une anse de culture, on ensemence dans un bouillon de Triptone-soja et on incube pendant 20 heures à 37°C. On dilue à 1/4 la culture obtenue avec une solution physiologique Ringer, de façon à obtenir une suspension normalisée de […] pour chaque organisme.
# (§6) A partir d'une solution de 100 µg/ml, chaque produit est dilué dans l'Agar Dextrose (préalablement fondu et maintenu à 50°C) par dilutions successives de façon à obtenir les concentrations suivantes : 64-32-16-8-4-2-1-0,5-0,25-0,125 µg de dérivé/ml du milieu.
# (§7) Postérieurement, chaque concentration de chaque produit est répartie dans des boîtes de Petri de 10 cm de diamètre, à raison de 10 ml de milieu par boîte et autant de boîtes que de microorganismes à tester.
# (§8) Une fois le milieu refroidi, les boîtes sont ensemencées avec les inoculations à raison de 0,4 ml d'inoculation par boîte. On les étend avec une anse de Driglasky et on recueille le surnageant. Les boîtes ensemencées sont incubées à 37°C pendant 20 heures.
# (§9) Les résultats obtenus sont décrits dans les tableaux suivants. Les concentrations sont données en µg/ml.
# [2] = tested on: Kleb. pneumoniae ATCC 10031; assay: Antimicrobial activity, agar dilution; format: cell-based, Klebsiella pneumoniae; settings: Klebsiella pneumoniae, ATCC10031, 20 h, Agar Dextrose dilutions, 37°C, 20 heures, read-out: Activité pharmacologique antimicrobienne (concentrations)
# Text: as §1, §2, §3, §4, §5, §6, §7, §8, §9
# [3] = tested on: Staph. aureus ATCC 25178; assay: Antimicrobial activity, agar dilution; format: cell-based, Staphylococcus aureus; settings: Staphylococcus aureus, ATCC25178, 20 h, Agar Dextrose dilutions, 37°C, 20 heures, read-out: Activité pharmacologique antimicrobienne (concentrations)
# Text: as §1, §2, §3, §4, §5, §6, §7, §8, §9
# [4] = tested on: Citr. freundii ATCC 11606; assay: Antimicrobial activity, agar dilution; format: cell-based, Citrobacter freundii; settings: Citrobacter freundii, ATCC11606, 20 h, Agar Dextrose dilutions, 37°C, 20 heures, read-out: Activité pharmacologique antimicrobienne (concentrations)
# Text: as §1, §2, §3, §4, §5, §6, §7, §8, §9
# [5] = tested on: Staph. epidermidis ATCC 155-1; assay: Antimicrobial activity, agar dilution; format: cell-based; settings: Staphylococcus epidermidis, ATCC155, 20 h, Agar Dextrose dilutions, 37°C, 20 heures, read-out: Activité pharmacologique antimicrobienne (concentrations)
# Text: as §1, §2, §3, §4, §5, §6, §7, §8, §9
# [6] = tested on: Shigella flexnerii ATCC 12022; assay: Antimicrobial activity, agar dilution; format: cell-based; settings: ATCC12022, 20 h, Agar Dextrose dilutions, 37°C, 20 heures, read-out: Activité pharmacologique antimicrobienne (concentrations)
# Text: as §1, §2, §3, §4, §5, §6, §7, §8, §9
# [7] = tested on: Bacillus cereus ATCC 11778; assay: Antimicrobial activity, agar dilution; format: cell-based; settings: Bacillus cereus, ATCC11778, 20 h, Agar Dextrose dilutions, 37°C, 20 heures, read-out: Activité pharmacologique antimicrobienne (concentrations)
# Text: as §1, §2, §3, §4, §5, §6, §7, §8, §9
# [8] = tested on: Ps. aeruginosa ATCC 9721; assay: Antimicrobial activity, agar dilution; format: cell-based; settings: Pseudomonas aeruginosa, ATCC9721, 20 h, Agar Dextrose dilutions, 37°C, 20 heures, read-out: Activité pharmacologique antimicrobienne (concentrations)
# Text: as §1, §2, §3, §4, §5, §6, §7, §8, §9
# [9] = tested on: Escherichia coli ATCC 23559; assay: Antimicrobial activity, agar dilution; format: cell-based; settings: Escherichia coli, ATCC23559, 20 h, Agar Dextrose dilutions, 37°C, 20 heures, read-out: Activité pharmacologique antimicrobienne (concentrations)
# Text: as §1, §2, §3, §4, §5, §6, §7, §8, §9
# [10] = tested on: Escherichia coli ATCC 10799; assay: Antimicrobial activity, agar dilution; format: cell-based; settings: Escherichia coli, ATCC10799, 20 h, Agar Dextrose dilutions, 37°C, 20 heures, read-out: Activité pharmacologique antimicrobienne (concentrations)
# Text: as §1, §2, §3, §4, §5, §6, §7, §8, §9
# [11] = tested on: Morg. morganii ATCC 8019; assay: Antimicrobial activity, agar dilution; format: cell-based; settings: Morganella morganii, ATCC8019, 20 h, Agar Dextrose dilutions, 37°C, 20 heures, read-out: Activité pharmacologique antimicrobienne (concentrations)
# Text: as §1, §2, §3, §4, §5, §6, §7, §8, §9
# [12] = tested on: Sal. typhi ATCC 6539; assay: Antimicrobial activity, agar dilution; format: cell-based; settings: Salmonella enterica, 20 h, read-out: Activité pharmacologique antimicrobienne (concentrations)
# Text: as §1, §2, §3, §4, §5, §6, §7, §8, §9
# [13] = tested on: Proteus vulgaris ATCC 8427; assay: Antimicrobial activity, agar dilution; format: cell-based; settings: Proteus vulgaris, ATCC8427, 20 h, Agar Dextrose dilutions, 37°C, 20 heures, read-out: Activité pharmacologique antimicrobienne (concentrations)
# Text: as §1, §2, §3, §4, §5, §6, §7, §8, §9
# [14] = tested on: Ps. aeruginosa ATCC 10145; assay: Antimicrobial activity, agar dilution; format: cell-based; settings: Pseudomonas aeruginosa, ATCC10145, 20 h, Agar Dextrose dilutions, 37°C, 20 heures, read-out: Activité pharmacologique antimicrobienne (concentrations)
# Text: as §1, §2, §3, §4, §5, §6, §7, §8, §9
# [15] = tested on: Bacillus subtilis ATCC 6633; assay: Antimicrobial activity, agar dilution; format: cell-based; settings: ATCC6633, 20 h, Agar Dextrose dilutions, 37°C, 20 heures, read-out: Activité pharmacologique antimicrobienne (concentrations)
# Text: as §1, §2, §3, §4, §5, §6, §7, §8, §9
# [16] = tested on: Serr. marcescens ATCC 13880; assay: Antimicrobial activity, agar dilution; format: cell-based, Serratia marcescens; settings: Serratia marcescens, ATCC13880, 20 h, Agar Dextrose dilutions, 37°C, 20 heures, read-out: Activité pharmacologique antimicrobienne (concentrations)
# Text: as §1, §2, §3, §4, §5, §6, §7, §8, §9
# [17] = tested on: Sal. typhimurium ATCC 14028; assay: Antimicrobial activity, agar dilution; format: cell-based, Salmonella typhimurium; settings: Salmonella enterica, 20 h, Agar Dextrose dilutions, 37°C, 20 heures, read-out: Activité pharmacologique antimicrobienne (concentrations)
# Text: as §1, §2, §3, §4, §5, §6, §7, §8, §9
# [18] = tested on: Ent. aerogenes ATCC 15038; assay: Antimicrobial activity, agar dilution; format: cell-based, Enterobacter aerogenes; settings: Klebsiella aerogenes, ATCC15038, 20 h, Agar Dextrose dilutions, 37°C, 20 heures, read-out: Activité pharmacologique antimicrobienne (concentrations)
# Text: as §1, §2, §3, §4, §5, §6, §7, §8, §9
# [19] = tested on: Ent. cloacae ATCC 23355; assay: Antimicrobial activity, agar dilution; format: cell-based, Enterobacter cloacae; settings: Enterobacter cloacae, ATCC23355, 20 h, Agar Dextrose dilutions, 37°C, 20 heures, read-out: Activité pharmacologique antimicrobienne (concentrations)
# Text: as §1, §2, §3, §4, §5, §6, §7, §8, §9
# [20] = Solubility in water and at pH 7.4; format: physicochemical
# Text: Un grand nombre des composés de l'invention manifestent une augmentation de la solubilité dans l'eau ainsi que de la solubilité à pH 7,4 lorsqu'on compare avec les composés de référence. L'augmentation de solubilité au pH physiologique peut favoriser l'absorption du produit et la solubilité élevée dans l'eau permet l'administration du composé par voie parentérale.
compound,measurement,setting,value
"CCn1cc(C(=O)O)c(=O)c2cnc(N3CCNCC3)nc21 [Acide pipémidique, reference compound]",MIC,[1],> 64 µg/mL
same,MIC,[2],2 µg/mL
same,MIC,[3],64 µg/mL
same,MIC,[4],4 µg/mL
same,MIC,[5],64 µg/mL
same,MIC,[6],4 µg/mL
same,MIC,[7],16 µg/mL
same,MIC,[8],32 µg/mL
same,MIC,[9],2 µg/mL
same,MIC,[10],16 µg/mL
same,MIC,[11],8 µg/mL
same,MIC,[12],4 µg/mL
same,MIC,[13],16 µg/mL
same,MIC,[14],32 µg/mL
same,MIC,[15],8 µg/mL
same,MIC,[16],16 µg/mL
same,MIC,[17],8 µg/mL
same,MIC,[18],32 µg/mL
same,MIC,[19],8 µg/mL
"C[C@H]1[C@H](N)CN1c1nc2c(cc1F)c(=O)c(C(=O)O)cn2C1CC1 [Exemple 1a, acide 7-[(2S,3R)-2-méthyl-3-amino-1-azétidinyl]-1-cyclopropyl-6-fluoro-1,4-dihydro-4-oxo-1,8-naphtyridine-3-carboxylique, reference compound]",solubility,[20]; pH 7,16.5 µg/mL
same,solubility,[20]; water,23 µg/mL
"NC1CN(c2nc3c(cc2F)c(=O)c(C(=O)O)cn3-c2ccc(F)cc2F)C1 [Exemple 1b, acide 7-(3-amino-1-azétidinyl)-1-(2,4-difluorophényl)-6-fluoro-1,4-dihydro-4-oxo-1,8-naphtyridine-3-carboxylique, reference compound]",solubility,[20]; pH 7,3.7 µg/mL
same,solubility,[20]; water,3 µg/mL
